Read-outs that look alike come from different tables or passages of the source.
Key:
Assay in all cases: MIC of compounds alone and combined with antibacterials, broth microdilution (CLSI)
Assay type in all cases: cell-based
[1] = system: Serratia marcescens (SMA) isolates; details: for MIC: Serratia marcescens
In short: (§1)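 Compound MIC, and antibacterial MIC at each fixed compound level, taken by visual inspection as lowest concentration stopping growth. Inoculum: log-phase bacteria, final 5·10^5 CFU/mL, cation-adjusted Mueller-Hinton broth; 16-20 h, 35° C, ambient air.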

[2] = system: Providencia stuartii (PST) isolates; details: for MIC ATB in combination: AF1 @ 4 μg/mL; for MIC: Providencia stuartii, ATB alone, read-out: MIC
In short: as §1

[3] = system: Citrobacter koseri (CKR) isolates; details: for MIC ATB in combination: AF1 @ 4 μg/mL; for MIC: Citrobacter koseri, ATB alone
In short: as §1

[4] = system: Morganella morganii (MMO) isolates; details: for MIC ATB in combination: AF1 @ 4 μg/mL; for MIC: Morganella morganii, ATB alone
In short: as §1

[5] = system: Enterobacter aerogenes (EAE) isolates; details: for MIC ATB in combination: AF1 @ 4 μg/mL; for MIC: Klebsiella aerogenes
In short: as §1

[6] = system: Klebsiella oxytoca (KOX) isolates; details: for MIC ATB in combination: AF1 @ 4 μg/mL; for MIC: Klebsiella oxytoca, ATB alone
In short: as §1

[7] = system: Providencia rettgeri (PRE) isolates; details: for MIC: Providencia rettgeri, ATB alone
In short: as §1

Which results are given for `CO/N=C(\C(=O)N[C@@H]1C(=O)N2C(C(=O)O)=C(COC(N)=O)CS[C@H]12)c1ccco1` [FUR, Cefuroxime]?
MIC ATB in combination ([1]; SMA UFR30, AF1 @ 4 μg/mL): 64 µg/mL; MIC ATB in combination ([1]; SMA UFR134, AF1 @ 4 μg/mL): 64 µg/mL; MIC ATB in combination ([1]; SMA UFR135, AF1 @ 4 μg/mL): >128 µg/mL; MIC ATB in combination ([1]; SMA UFR136, AF1 @ 4 μg/mL): >128 µg/mL; MIC ATB in combination ([1]; SMA UFR137, AF1 @ 4 μg/mL): 32 µg/mL; MIC ATB in combination ([1]; SMA UFR138, AF1 @ 4 μg/mL): 64 µg/mL; MIC ATB in combination ([1]; SMA UFR139, AF1 @ 4 μg/mL): 64 µg/mL; MIC ATB in combination ([1]; SMA UFR141, AF1 @ 4 μg/mL): 128 µg/mL; MIC ATB in combination ([1]; SMA UFR142, AF1 @ 4 μg/mL): 64 µg/mL; MIC ATB in combination ([1]; SMA UFR143, AF1 @ 4 μg/mL): 32 µg/mL; MIC ATB in combination ([1]; SMA UFR239, AF1 @ 4 μg/mL): >128 µg/mL; MIC [1]: > 256 µg/mL; MIC ([1]; ATB alone, strain SMA UFR238 (OXA-48), read-out: MIC): > 256 µg/mL; MIC ([1]; strain SMA UFR30 (OXA-405), ATB alone, read-out: MIC): > 256 µg/mL; MIC ([1]; strain SMA UFR134 (TEM-1, BES-1), ATB alone, read-out: MIC): > 256 µg/mL; MIC ([1]; strain SMA UFR137 (SME-1), ATB alone, read-out: MIC): 256 µg/mL; MIC ([1]; strain SMA UFR138 (SME-1), ATB alone, read-out: MIC): 256 µg/mL; MIC ([1]; strain SMA UFR139 (SME-2), ATB alone, read-out: MIC): > 256 µg/mL; MIC ([1]; strain SMA UFR141 (OXA-48), ATB alone, read-out: MIC): > 256 µg/mL; MIC ([1]; strain SMA UFR142 (OXA-48), ATB alone, read-out: MIC): > 256 µg/mL; MIC ([1]; strain SMA UFR143 (CTX-M-15, OXA-1, OXA-48), ATB alone, read-out: MIC): > 256 µg/mL; MIC ([1]; strain SMA UFR239 (ESAC), ATB alone, read-out: MIC): 256 µg/mL; MIC ATB in combination ([1]; strain SMA UFR238, antibacterial combined with AF1 @ 4 μg/mL): 64 µg/mL; MIC ATB in combination ([2]; PST UFR94): 8 µg/mL; MIC ATB in combination ([2]; PST UFR95): 32 µg/mL; MIC ATB in combination ([2]; PST UFR235): 8 µg/mL; MIC ([2]; strain PST UFR94 (CTX-M-14)): > 256 µg/mL; MIC ([2]; strain PST UFR95 (TEM-24)): 128 µg/mL; MIC ([2]; strain PST UFR235 (VEB-1)): 256 µg/mL; MIC ATB in combination ([3]; CKO ROU): 32 µg/mL; MIC ATB in combination ([3]; CKO UFR149): 128 µg/mL; MIC ATB in combination ([3]; CKO UFR150): 32 µg/mL; MIC ([3]; strain CKO ROU (TEM-1, SHV-12, CTX-M-15, OXA-1, OXA-48), read-out: MIC): 64 µg/mL; MIC ([3]; strain CKO UFR149 (OXA-48)): > 256 µg/mL; MIC ([3]; strain CKO UFR150 (TEM-1, OXA-48), read-out: MIC): 64 µg/mL; MIC ATB in combination ([4]; MMO 200321): 128 µg/mL; MIC ATB in combination ([4]; MMO UFR144): 32 µg/mL; MIC ATB in combination ([4]; MMO UFR240): 16 µg/mL; MIC ATB in combination ([4]; MMO UFR241): 32 µg/mL; MIC ATB in combination ([4]; MMO UFR242): 32 µg/mL; MIC ATB in combination ([4]; MMO UFR243): 32 µg/mL; MIC ATB in combination ([4]; MMO UFR244): 16 µg/mL; MIC ATB in combination ([4]; MMO UFR245): 32 µg/mL; MIC ATB in combination ([4]; MMO UFR246): 64 µg/mL; MIC ATB in combination ([4]; MMO UFR247): 16 µg/mL; MIC ([4]; strain MMO 200321 (TEM-1, CTX-M-15, OXA-1)): > 256 µg/mL; MIC ([4]; strain MMO UFR144 (TEM-1, CTX-M-15)): > 256 µg/mL; MIC ([4]; strain MMO UFR240 (CTX-M-9)): > 256 µg/mL; MIC ([4]; strain MMO UFR241 (TEM-1, CTX-M-15)): > 256 µg/mL; MIC ([4]; strain MMO UFR242 (TEM-52)): > 256 µg/mL; MIC ([4]; strain MMO UFR243 (DHA-1), read-out: MIC): 128 µg/mL; MIC ([4]; strain MMO UFR244 (DHA-1), read-out: MIC): 64 µg/mL; MIC ([4]; strain MMO UFR245 (DHA-1), read-out: MIC): 128 µg/mL; MIC ([4]; strain MMO UFR246 (DHA-1), read-out: MIC): 128 µg/mL; MIC ([4]; strain MMO UFR247 (DHA-1), read-out: MIC): > 256 µg/mL; MIC ATB in combination ([5]; EAE 49469): 64 µg/mL; MIC ATB in combination ([5]; EAE 200261): 64 µg/mL; MIC ATB in combination ([5]; EAE UFR199): 8 µg/mL; MIC ATB in combination ([5]; EAE UFR201): 2 µg/mL; MIC ATB in combination ([5]; EAE UFR202): 32 µg/mL; MIC ATB in combination ([5]; EAE UFR213): 8 µg/mL; MIC [5]: > 256 µg/mL; MIC ([5]; strain EAE 49469 (AmpC), ATB alone, read-out: MIC): > 128 µg/mL; MIC ([5]; strain EAE 200261 (TEM-x, AmpC), ATB alone, read-out: MIC): > 256 µg/mL; MIC ([5]; strain EAE UFR201 (TEM-1, SHV-12, CTX-M-15), ATB alone, read-out: MIC): > 256 µg/mL; MIC ([5]; strain EAE UFR202 (TEM-24), ATB alone, read-out: MIC): > 256 µg/mL; MIC ([5]; strain EAE UFR213 (TEM-24), ATB alone, read-out: MIC): > 256 µg/mL; MIC ATB in combination ([6]; KOX UFR21): 16 µg/mL; MIC ATB in combination ([6]; KOX UFR173): 4 µg/mL; MIC ATB in combination ([6]; KOX UFR223): 2 µg/mL; MIC ATB in combination ([6]; KOX UFR224): 2 µg/mL; MIC ([6]; strain KOX UFR21 (TEM-1, CTX-M-15, OXA-48)): > 256 µg/mL; MIC ([6]; strain KOX UFR173 (OXY2-2), read-out: MIC): > 256 µg/mL; MIC ([6]; strain KOX UFR223 (SHV-11, OXA-48), read-out: MIC): 8 µg/mL; MIC ([6]; strain KOX UFR224 (CTX-M-15, OXA-48)): > 256 µg/mL; MIC ATB in combination ([7]; PRE UFR99, AF1 @ 4 μg/mL): >128 µg/mL; MIC ([7]; strain PRE UFR99 (OXA-1, OXA-181)): > 256 µg/mL; MIC ([7]; strain PRE UFR236 (TEM-1, OXA-48), read-out: MIC): 64 µg/mL; MIC ATB in combination ([7]; strain PRE UFR236, antibacterial combined with AF1 @ 4 μg/mL): 8 µg/mL
